From patent US6608111B1, “Method for treating or preventing prostatic conditions” (Southern Illinois University Office of Research, …, priority 1998, dated 2003)

Experiments:
[1] = tested on: dialyzed LDL; experiment: Oxidized LDL lag time assay (antioxidant capacity); set-up: species or system human; conditions: 3 μM Cu2SO4, drugs at 10^−4, 10^−5, 10^−6, and 10^−7 M
Procedure: Experiments were carried out on dialyzed LDL collected from four fasted persons. The LDL was used within 10 days of dialysis. The oxidizing agent was 3 μM […]; phosphate buffered saline was used to control pH, and all drugs were dissolved in ethanol; final concentrations of each drug in the assays were 10^−4, 10^−5, 10^−6, and 10^−7 M. The combined results are shown in FIG. 6.

[2] = tested on: male and female Wistar rats; experiment: Experiment 2: chronic treatment of male and female rats, 5-6 weeks; type: in vivo, rat; conditions: for Food intake: n = 5; for testosterone: compared to the vehicle
Procedure: Twenty-five male and 25 female Wistar rats, 7-8 weeks of age, were randomly assigned to groups of five animals, respectively, for treatment with vehicle only (V), estradiol (E), (±)-Z-BDDA, (+)-Z-BDDA, or (−)-Z-BDDA. Each animal in group V received a daily 0.1 cc injection of a 10% ethanol-90% olive oil solution; the other treatments received their respective compound as a daily 0.1 cc injection, e.g., 2.5 μg of compound/g of body weight, in a 10% ethanol-90% olive oil solution. A temperature of 21° C. and an artificial 12-h light-dark cycle were maintained in the animal room. All animals were maintained on standard chow in powdered form, the males for five weeks and the females for six weeks, then sacrificed after an overnight fast under i.p. pentobarbital anesthesia (50 mg/kg). Animal weight and food intake were measured weekly during the study and subsequent FER values were determined. During sacrifice, blood was collected (via cardiac puncture) for glucose, luteinizing hormone, prolactin and testosterone measurements. The amounts of luteinizing hormone, prolactin and testosterone were measured to help elucidate the target tissue of the respective compounds in male and female rats. Immediately following sacrifice the fat pads and reproductive organs were removed and weighed.
Experiments 1 and 2 employed a randomized design. All data were analyzed by one-way analysis of variance (ANOVA,)and post-hoc comparisons were made with Tukey pairwise comparisons test. Significance was confirmed at p≦0.05 (SYSTAT 7.0, SPSS INC., 1997), and all values are reported as means±standard error of the mean.

[3] = tested on: primary porcine granulosa cells; experiment: In situ apoptosis assay in primary porcine granulosa cells; type: cell-based; conditions: for mean apoptosis (% area): 24 hr treatment, 0.1, 1 and 10 μM combined, serum-free MEM, controls 63.4% / 68.4%
Procedure: Porcine ovaries were obtained from local packing plants and transported to the laboratory on ice-cold Hank's balanced salt solution (HBSS). Each of the follicles was aspirated with an insulin syringe, and the follicular fluid was centrifuged at 3000 rpm and 4° C. for 15 min. The supernatant was poured off and the cells were washed in 5 mls of cold HBSS and centrifuged for another 10 min. The cells were again resuspended in HBSS, and the number of viable cells counted under the microscope using a hematocytometer. Once the number of cells was determined, the cells were centrifuged again for 10 min. and resuspended in the appropriate volume of Eagle's minimum essential media (MEM) containing 10% fetal bovine serum (FBS) and antibiotic/antimycotics. The cells were plated at 250,000 per well in 8 chamber microscope slides (Nunc, Naperville, Ill.) which were pre-treated with poly-L-lysine for 10 min. The slides were incubated at 5% CO2/95% air at 37° C. Approximately 12 hours later, the medium was removed by vacuum and replaced with pre-warmed, serum-free MEM. Cells were then treated for 2-3 hrs with MEM only to wash out any estrogen effects from the serum (Winters et al. (1994) Biol. Reprod. 50 (Suppl. 1):113; Suttner et al. (1998) Biol. Reprod. 59 (Suppl.): (Accepted for publication). Following serum-free MEM treatment, cells were treated for 24 hr with (+) or (−) enantiomers of Z-BDDA or estradiol at 0. 1, 1, and 10 μM, or EtOH vehicle control in serum-free MEM. Cells were subsequently processed using an in situ apoptosis assay kit (Apotag-Plus In Situ Apoptosis Kit-Peroxidase, Edition 1.1., Oncor, Gaithersburg, Md., 1995) to study ovarian apoptosis (Suttner et al., 1998). The slides were washed in two changes of PBS for 5 min each, and then quenched in 2% hydrogen peroxide in methanol for 5 min. at room temperature. After pre-treatment with an equilibration buffer, 13 ul of Terminal deoxynucleotidyl Transferase (TdT) diluted with reaction buffer and distilled water were added, and the slides were incubated for 1 h at 37° C. in a humidified chamber. After this 1 h period, the slides were put in pre-warmed stop wash buffer in the incubator for 30 min to stop the reaction. Next, the slides were washed in three changes of PBS for 5 min. each, and the anti-digoxigenin peroxidase was placed on the slides for 30 min. in a humidified chamber at room temperature. […] The degree of apoptosis for the calorimetric apoptosis assay was quantified microscopically using an image analysis system (Optimas 5.23, Optimas Users Guide, 5th Edition, Redmond, Wash.). Ten measurements (captured images) were taken for each concentration based on a pre-determined grid. […] Percentage area of each color was then quantitated using the image analysis system. […]

[4] = female rats (uterus), 2.5 ug/g of body weight daily, six weeks, mean ± SEM
[5] = female rats, 2.5 ug/g of body weight daily, six weeks, mean ± SEM
[6] = male rats (testis), 2.5 ug/g of body weight daily, five weeks, mean ± SEM
[7] = male rats, 2.5 ug/g of body weight daily, five weeks, mean ± SEM

Structure (SMILES)	antioxidant activity (shift in lag time of LDL oxidation) [1]	Uterus/testis weight (g) [2, 4]	Blood glucose [2, 5]	FER (food efficiency ratio) [2, 5]	Food intake [2, 5]	Uterus/testis weight (g) [2, 6]	testosterone ([2]; male rats, 2.5 μg/g daily)	Blood glucose [2, 7]	FER (food efficiency ratio) [2, 7]	Prostate weight [2, 7]	Food intake [2, 7]	body weight (percent weight change) ([2]; male rats, both experiments (FIGS. 2 and 3), 2.5 μg/g daily)	percent apoptosis ([3]; 24 hr treatment at 10 μM)	mean apoptosis (% area) [3]	Blood glucose (mg/dl) [2, 7]	Prostate weight (g) [2, 7]
C[C@]12CCC3c4ccc(O)cc4CCC3[C@@H]1CCC2O (single isomer, unassigned; (+)) [estradiol, (+)-17β-estradiol, reference compound]	very little antioxidant activity	4.83 ± 1.30^1 g	100.80 ± 10.22 mg/dL	0.039 ± 0.004	699.6 ± 33.7 g	0.74 ± 0.04^1 g	significant (p<0.05) testosterone suppression	108.00 ± 10.90 mg/dL	0.00 ± 0.01^1	0.06 ± 0.02 g	590.4 ± 47.7 g	dramatic reduction in body weight	23.8%	46.5%		
CC[C@H]1c2ccc3cc(O)ccc3c2CC[C@@]1(C)C(=O)O [(+)-Z-BDDA, (+)-Z-bisdehydrodoisynolic acid]	significant antioxidant activity	4.02 ± 0.91^1 g	89.60 ± 6.15 mg/dL	0.026 ± 0.008^1	693.6 ± 72.3 g	0.61 ± 0.02^1 g	significant (p<0.05) testosterone suppression		−0.02 ± 0.01^1		676.0 ± 33.2 g			61.1%	94.00 ± 10.18^1 mg/dl	0.02 ± 0.00^1 g
